Measured values taken from PubChem BioAssay AID1963960 (Molecular Pharmacology Branch, DTP, NCI, 2024).

Test system: MDA-MB-468 spheroids with HUVEC/MSC, viability
Assay: Anticancer human tumor MDA-MB-468 cell line growth inhibition [PI3K];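 also: spheroids exposed to agents for seven days before readout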;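 as to viability, T/C: 100% = DMSO vehicle control viability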
Conditions: for IC50: curve of first compound; for viability, T/C: stronger effect = lower value
In short: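 Targeted small molecules plus PI3K inhibitors, half-log dose series from Cmax (default top 10 microM), were applied to heterotypic spheroids of cancer cells with HUVEC and MSCs. Viability indicated growth inhibition.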

[1] = second compound 0.00316 µM, first compound 0.0316 µM
[2] = second compound 0.00316 µM, first compound 0.1 µM
[3] = second compound 0.00316 µM, first compound 0.316 µM
[4] = second compound 0.00316 µM, first compound 1 µM
[5] = second compound 0.00316 µM, first compound 3.16 µM
[6] = second compound 0.00316 µM, first compound 10 µM
[7] = second compound 0.01 µM, first compound 0.0316 µM
[8] = second compound 0.01 µM, first compound 0.1 µM
[9] = second compound 0.01 µM, first compound 0.316 µM
[10] = second compound 0.01 µM, first compound 1 µM
[11] = second compound 0.01 µM, first compound 3.16 µM
[12] = second compound 0.01 µM, first compound 10 µM
[13] = second compound 0.0316 µM, first compound 0.0316 µM
[14] = second compound 0.0316 µM, first compound 0.1 µM
[15] = second compound 0.0316 µM, first compound 0.316 µM
[16] = second compound 0.0316 µM, first compound 1 µM
[17] = second compound 0.0316 µM, first compound 3.16 µM
[18] = second compound 0.0316 µM, first compound 10 µM
[19] = second compound 0.1 µM, first compound 0.0316 µM
[20] = second compound 0.1 µM, first compound 0.1 µM
[21] = second compound 0.1 µM, first compound 0.316 µM
[22] = second compound 0.1 µM, first compound 1 µM
[23] = second compound 0.1 µM, first compound 3.16 µM
[24] = second compound 0.1 µM, first compound 10 µM
[25] = second compound 0.316 µM, first compound 0.0316 µM
[26] = second compound 0.316 µM, first compound 0.1 µM
[27] = second compound 0.316 µM, first compound 0.316 µM
[28] = second compound 0.316 µM, first compound 1 µM
[29] = second compound 0.316 µM, first compound 3.16 µM
[30] = second compound 0.316 µM, first compound 10 µM
[31] = second compound 1 µM, first compound 0.0316 µM
[32] = second compound 1 µM, first compound 0.1 µM
[33] = second compound 1 µM, first compound 0.316 µM
[34] = second compound 1 µM, first compound 1 µM
[35] = second compound 1 µM, first compound 3.16 µM
[36] = second compound 1 µM, first compound 10 µM

## CC(C)NCC(C(=O)N1CCN(c2ncnc3c2C(C)CC3O)CC1)c1ccc(Cl)cc1 (stereo not drawn) + COc1c(OCCCN2CCOCC2)ccc2c3n(c(=NC(=O)c4cnc(N)nc4)nc12)CCN3
Second compound 0.00316 µM
  IC50: 910 nM
Second compound 0.01 µM
  IC50: 762 nM
Second compound 0.0316 µM
  IC50: 711 nM
Second compound 0.1 µM
  IC50: 219 nM
Second compound 0.316 µM
  IC50: < 31.6 nM
Second compound 1 µM
  IC50: < 31.6 nM
[1]
  viability, T/C: 89.4%
[2]
  viability, T/C: 79.2%
[3]
  viability, T/C: 70.6%
[4]
  viability, T/C: 47.7%
[5]
  viability, T/C: 31.4%
[6]
  viability, T/C: 24.2%
[7]
  viability, T/C: 83.2%
[8]
  viability, T/C: 81.3%
[9]
  viability, T/C: 65.4%
[10]
  viability, T/C: 44.5%
[11]
  viability, T/C: 31.7%
[12]
  viability, T/C: 23.6%
[13]
  viability, T/C: 76.3%
[14]
  viability, T/C: 68.5%
[15]
  viability, T/C: 66.4%
[16]
  viability, T/C: 42.3%
[17]
  viability, T/C: 28.9%
[18]
  viability, T/C: 20.2%
[19]
  viability, T/C: 57.4%
[20]
  viability, T/C: 55.2%
[21]
  viability, T/C: 49.1%
[22]
  viability, T/C: 34.7%
[23]
  viability, T/C: 27.1%
[24]
  viability, T/C: 14.7%
[25]
  viability, T/C: 27.1%
[26]
  viability, T/C: 27%
[27]
  viability, T/C: 24.5%
[28]
  viability, T/C: 21.2%
[29]
  viability, T/C: 15.1%
[30]
  viability, T/C: 9.47%
[31]
  viability, T/C: 4.25%
[32]
  viability, T/C: 3.87%
[33]
  viability, T/C: 2.81%
[34]
  viability, T/C: 3.58%
[35]
  viability, T/C: 3.71%
[36]
  viability, T/C: 2.69%

## CCN1CCN(Cc2ccc(Nc3ncc(F)c(-c4cc(F)c5nc(C)n(C(C)C)c5c4)n3)nc2)CC1 + COc1c(OCCCN2CCOCC2)ccc2c3n(c(=NC(=O)c4cnc(N)nc4)nc12)CCN3
Second compound 0.00316 µM
  IC50: > 1000 nM
Second compound 0.01 µM
  IC50: > 1000 nM
Second compound 0.0316 µM
  IC50: > 1000 nM
Second compound 0.1 µM
  IC50: > 1000 nM
Second compound 0.316 µM
  IC50: < 3.16 nM
Second compound 1 µM
  IC50: < 3.16 nM
Second compound 0.00316 µM, first compound 0.00316 µM
  viability, T/C: 96.9%
Second compound 0.00316 µM, first compound 0.01 µM
  viability, T/C: 90.8%
[1]
  viability, T/C: 88.2%
[2]
  viability, T/C: 96.8%
[3]
  viability, T/C: 99.5%
[4]
  viability, T/C: 69.9%
Second compound 0.01 µM, first compound 0.00316 µM
  viability, T/C: 85.3%
Second compound 0.01 µM, first compound 0.01 µM
  viability, T/C: 88.8%
[7]
  viability, T/C: 82%
[8]
  viability, T/C: 88.8%
[9]
  viability, T/C: 84.2%
[10]
  viability, T/C: 54.4%
Second compound 0.0316 µM, first compound 0.00316 µM
  viability, T/C: 77%
Second compound 0.0316 µM, first compound 0.01 µM
  viability, T/C: 72.2%
[13]
  viability, T/C: 77.5%
[14]
  viability, T/C: 73.6%
[15]
  viability, T/C: 81.4%
[16]
  viability, T/C: 66.1%
Second compound 0.1 µM, first compound 0.00316 µM
  viability, T/C: 56.6%
Second compound 0.1 µM, first compound 0.01 µM
  viability, T/C: 72.4%
[19]
  viability, T/C: 61.9%
[20]
  viability, T/C: 59%
[21]
  viability, T/C: 64%
[22]
  viability, T/C: 40.3%
Second compound 0.316 µM, first compound 0.00316 µM
  viability, T/C: 26.9%
Second compound 0.316 µM, first compound 0.01 µM
  viability, T/C: 25.1%
[25]
  viability, T/C: 28.1%
[26]
  viability, T/C: 29.9%
[27]
  viability, T/C: 31.7%
[28]
  viability, T/C: 24.4%
Second compound 1 µM, first compound 0.00316 µM
  viability, T/C: 4.09%
Second compound 1 µM, first compound 0.01 µM
  viability, T/C: 4.14%
[31]
  viability, T/C: 2.96%
[32]
  viability, T/C: 4.33%
[33]
  viability, T/C: 6.64%
[34]
  viability, T/C: 9.9%

## Cn1ncc(Cl)c1-c1cc(C(=O)NC(CN)Cc2cccc(F)c2)sc1Cl (stereo not drawn) + COc1c(OCCCN2CCOCC2)ccc2c3n(c(=NC(=O)c4cnc(N)nc4)nc12)CCN3
Second compound 0.00316 µM
  IC50: 331 nM
Second compound 0.01 µM
  IC50: 236 nM
Second compound 0.0316 µM
  IC50: 152 nM
Second compound 0.1 µM
  IC50: < 31.6 nM
Second compound 0.316 µM
  IC50: < 31.6 nM
Second compound 1 µM
  IC50: < 31.6 nM
[1]
  viability, T/C: 78.5%
[2]
  viability, T/C: 66.2%
[3]
  viability, T/C: 50.1%
[4]
  viability, T/C: 36.1%
[5]
  viability, T/C: 25.3%
[6]
  viability, T/C: 17.2%
[7]
  viability, T/C: 71.8%
[8]
  viability, T/C: 64.2%
[9]
  viability, T/C: 42.7%
[10]
  viability, T/C: 33.2%
[11]
  viability, T/C: 22.9%
[12]
  viability, T/C: 14.6%
[13]
  viability, T/C: 66.5%
[14]
  viability, T/C: 58.7%
[15]
  viability, T/C: 37.2%
[16]
  viability, T/C: 28.5%
[17]
  viability, T/C: 22.1%
[18]
  viability, T/C: 12.1%
[19]
  viability, T/C: 49.6%
[20]
  viability, T/C: 40%
[21]
  viability, T/C: 33.9%
[22]
  viability, T/C: 25.4%
[23]
  viability, T/C: 17.5%
[24]
  viability, T/C: 7.31%
[25]
  viability, T/C: 25.1%
[26]
  viability, T/C: 21.1%
[27]
  viability, T/C: 20.4%
[28]
  viability, T/C: 14.9%
[29]
  viability, T/C: 12.7%
[30]
  viability, T/C: 4.16%
[31]
  viability, T/C: 3.44%
[32]
  viability, T/C: 3.28%
[33]
  viability, T/C: 3.02%
[34]
  viability, T/C: 3.44%
[35]
  viability, T/C: 3.8%
[36]
  viability, T/C: 1.32%

## Cn1nccc1Nc1nccc(-c2ccn(C(CO)c3ccc(Cl)c(F)c3)c(=O)c2)n1 (stereo not drawn) + COc1c(OCCCN2CCOCC2)ccc2c3n(c(=NC(=O)c4cnc(N)nc4)nc12)CCN3
Second compound 0.00316 µM
  IC50: > 10000 nM
Second compound 0.01 µM
  IC50: > 10000 nM
Second compound 0.0316 µM
  IC50: 7630 nM
Second compound 0.1 µM
  IC50: 4400 nM
Second compound 0.316 µM
  IC50: < 31.6 nM
Second compound 1 µM
  IC50: < 31.6 nM
[1]
  viability, T/C: 90.7%
[2]
  viability, T/C: 83%
[3]
  viability, T/C: 79.1%
[4]
  viability, T/C: 85.3%
[5]
  viability, T/C: 81.3%
[6]
  viability, T/C: 73.6%
[7]
  viability, T/C: 71.1%
[8]
  viability, T/C: 86.5%
[9]
  viability, T/C: 78.7%
[10]
  viability, T/C: 71.8%
[11]
  viability, T/C: 77.9%
[12]
  viability, T/C: 76.9%
[13]
  viability, T/C: 71.3%
[14]
  viability, T/C: 68.7%
[15]
  viability, T/C: 71.7%
[16]
  viability, T/C: 73.9%
[17]
  viability, T/C: 61.9%
[18]
  viability, T/C: 46%
[19]
  viability, T/C: 56.3%
[20]
  viability, T/C: 54.9%
[21]
  viability, T/C: 52.5%
[22]
  viability, T/C: 52.4%
[23]
  viability, T/C: 50.9%
[24]
  viability, T/C: 48.6%
[25]
  viability, T/C: 24.6%
[26]
  viability, T/C: 23.3%
[27]
  viability, T/C: 23.3%
[28]
  viability, T/C: 24.9%
[29]
  viability, T/C: 26%
[30]
  viability, T/C: 19.9%
[31]
  viability, T/C: 3.06%
[32]
  viability, T/C: 2.27%
[33]
  viability, T/C: 2.37%
[34]
  viability, T/C: 2.51%
[35]
  viability, T/C: 1.79%
[36]
  viability, T/C: 0.85%
